Results as given in US20230340011A1 (Asteroid Therapeutics, priority 2022, published 2023).
pEC50, pIC50: −log10 of the molar value.

Columns and labels:
[1] = biological target: LXRβ (Homo sapiens (Human), UniProt P55055); experiment: In vitro assay LXRβ: PathHunter NHR CHO cells, LXRβ / Steroid Receptor Co-activator Peptide enzyme fragment complementation; format: cell-based; details: PathHunter NHR CHO cells, full-length human LXRβ and SRCP, chemiluminescent signal; read-out: LXRβ PPI
Procedure: PathHunter NHR CHO cells stably transfected with tagged full-length human LXRβ and a nuclear fusion protein containing Steroid Receptor Co-activator Peptide (SRCP). The full-length human LXRβ was tagged with the ProLink™ component of the DiscoverX Enzyme Fragment Complementation (EFC) system and the SRCP domain is fused to the enzyme acceptor component (EA) expressed in the nucleus. Cells were seeded in a total volume of 20 μL into white walled, 384-well microplates and incubated at 37° C. overnight prior to testing. Assay media contained charcoal-dextran filtered serum to reduce the level of hormones present. Final assay vehicle concentration was 1%. […] Microplates were read following signal generation with a PerkinElmer Envision instrument for chemiluminescent signal detection.

[2] = biological target: SREBP-2 (Homo sapiens (Human), UniProt Q12772); experiment: In vitro assay SREBP-2: PathHunter U2OS SREBP-2 Nuclear Translocation Cell Line, U18666A-stimulated; format: cell-based; details: PathHunter U2OS SREBP-2 nuclear translocation cells, U18666A 10 μM, overnight (16 hours)

Chain of LXRβ (P55055 whole entry, the tested form may be a part): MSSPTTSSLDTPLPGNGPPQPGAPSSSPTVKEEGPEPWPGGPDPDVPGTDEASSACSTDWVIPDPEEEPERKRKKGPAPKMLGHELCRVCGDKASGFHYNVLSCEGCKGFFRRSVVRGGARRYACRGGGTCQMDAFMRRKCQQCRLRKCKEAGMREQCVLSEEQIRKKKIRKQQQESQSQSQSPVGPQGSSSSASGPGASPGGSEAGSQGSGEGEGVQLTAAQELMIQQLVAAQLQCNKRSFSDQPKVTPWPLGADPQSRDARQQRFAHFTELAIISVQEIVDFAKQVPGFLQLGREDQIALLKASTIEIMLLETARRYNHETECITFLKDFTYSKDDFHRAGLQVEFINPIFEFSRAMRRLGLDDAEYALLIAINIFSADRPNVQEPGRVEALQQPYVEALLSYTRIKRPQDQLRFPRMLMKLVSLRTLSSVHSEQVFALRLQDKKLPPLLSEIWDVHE

Compound	pEC50 [1]	pIC50 [2]
C[C@H](CCC(=O)N1CCN(c2ccncn2)CC1)[C@H]1CC[C@H]2[C@@H]3CC=C4C[C@@H](O)CC[C@]4(C)[C@H]3CC[C@]12C [Example 302, (R)-4-((3S,8S,9S,10R,13R,14S,17R)-3-hydroxy-10,13-dimethyl-2,3,4,7,8,9,10,11,12,13,14,15,16,17-tetradecahydro-1H-cyclopenta[a]phenanthren-17-yl)-1-(4-(pyrimidin-4-yl)piperazin-1-yl)pentan-1-one]	< 5.00	–
C[C@@H](NC(=O)C(=O)N(C)C)[C@H]1CC[C@H]2[C@@H]3CC=C4C[C@@H](O)CC[C@]4(C)[C@H]3CC[C@]12C (single isomer, unassigned) [Example 119]	< 5.00	–
CO[C@H]1CCCN(C(=O)CC[C@@H](C)[C@H]2CC[C@H]3[C@@H]4CC=C5C[C@@H](O)CC[C@]5(C)[C@H]4CC[C@]23C)C1 [Example 300, (R)-4-((3S,8S,9S,10R,13R,14S,17R)-3-hydroxy-10,13-dimethyl-2,3,4,7,8,9,10,11,12,13,14,15,16,17-tetradecahydro-1H-cyclopenta[a]phenanthren-17-yl)-1-((S)-3-methoxypiperidin-1-yl)pentan-1-one]	6.00 to 6.60	–
C[C@H](CCC(=O)N1CCN(C(=O)c2ccnnc2)CC1)[C@H]1CC[C@H]2[C@@H]3CC=C4C[C@@H](O)CC[C@]4(C)[C@H]3CC[C@]12C [Example 312, (R)-4-((3S,8S,9S,10R,13R,14S,17R)-3-hydroxy-10,13-dimethyl-2,3,4,7,8,9,10,11,12,13,14,15,16,17-tetradecahydro-1H-cyclopenta[a]phenanthren-17-yl)-1-(4-(pyridazine-4-carbonyl)piperazin-1-yl) pentan-1-one]	< 5.00	–
C[C@H](CCC(=O)N1CCN(Cc2cnn(C)c2)CC1)[C@H]1CC[C@H]2[C@@H]3CC=C4C[C@@H](O)CC[C@]4(C)[C@H]3CC[C@]12C [Example 223, (R)-4-((3S,8S,9S,10R,13R,14S,17R)-3-hydroxy-10,13-dimethyl-2,3,4,7,8,9,10,11,12,13,14,15,16,17-tetradecahydro-1H-cyclopenta[a]phenanthren-17-yl)-1-(4-((1-methyl-1H-pyrazol-4-yl)methyl)piperazin-1-yl)pentan-1-one]	< 5.00	–
C[C@H](CCC(=O)N1CCN(c2cccnc2)CC1)[C@H]1CC[C@H]2[C@@H]3CC=C4C[C@@H](O)CC[C@]4(C)[C@H]3CC[C@]12C [Example 306, (4R)-4-[(1R,3aS,3bS,7S,9aR,9bS,11aR)-7-hydroxy-9a,11a-dimethyl-1H,2H,3H,3aH,3bH,4H,6H,7H,8H,9H,9aH,9bH,10H,11H,11aH-cyclopenta[a]phenanthren-1-yl]-1-[4-(pyridin-3-yl)piperazin-1-yl]pentan-1-one]	< 5.00	–
C[C@H](CCC(=O)N1O[C@@H]2C[C@H]1[C@@H](O)[C@H]2O)[C@H]1CC[C@H]2[C@@H]3CC=C4C[C@@H](O)CC[C@]4(C)[C@H]3CC[C@]12C [Example 55, (R)-1-((1R,4S,5R,6R)-5,6-dihydroxy-2-oxa-3-azabicyclo[2.2.1]heptan-3-yl)-4-((3S,8S,9S,10R,13R,14S,17R)-3-hydroxy-10,13-dimethyl-2,3,4,7,8,9,10,11,12,13,14,15,16,17-tetradecahydro-1H-cyclopenta[a]phenanthren-17-yl)pentan-1-one]	< 5.00	–
C[C@H](CCC(=O)N1CCC(Oc2ccncc2)CC1)[C@H]1CC[C@H]2[C@@H]3CC=C4C[C@@H](O)CC[C@]4(C)[C@H]3CC[C@]12C [Example 301, (4R)-4-[(1R,3aS,3bS,7S,9aR,9bS,11aR)-7-hydroxy-9a,11a-dimethyl-1H,2H,3H,3aH,3bH,4H,6H,7H,8H,9H,9aH,9bH,10H,11H,11aH-cyclopenta[a]phenanthren-1-yl]-1-[4-(pyridin-4-yloxy)piperidin-1-yl]pentan-1-one]	< 5.00	–
C[C@H](CCC(=O)N1CCC(OC(F)(F)F)CC1)[C@H]1CC[C@H]2[C@@H]3CC=C4C[C@@H](O)CC[C@]4(C)[C@H]3CC[C@]12C [Example 251, (4R)-4-[(1R,3aS,3bS,7S,9aR,9bS,11aR)-7-hydroxy-9a,11a-dimethyl-1H,2H,3H,3aH,3bH,4H,6H,7H,8H,9H,9aH,9bH,10H,11H,11aH-cyclopenta[a]phenanthren-1-yl]-1-[4-(trifluoromethoxy)piperidin-1-yl]pentan-1-one]	< 5.00	–
CC(=O)N1CCN(C(=O)CC[C@@H](C)[C@H]2CC[C@H]3[C@@H]4CC=C5C[C@@H](O)CC[C@]5(C)[C@H]4CC[C@]23C)[C@@H](C)C1 [Example 276, (4R)-4-[(1R,3aS,3bS,7S,9aR,9bS,11aR)-7-hydroxy-9a,11a-dimethyl-1H,2H,3H,3aH,3bH,4H,6H,7H,8H,9H,9aH,9bH,10H,11H,11aH-cyclopenta[a]phenanthren-1-yl]-1-[(2S)-4-acetyl-2-methylpiperazin-1-yl]pentan-1-one]	< 5.00	–
CON(CC(=O)OC(C)(C)C)C(=O)CC[C@@H](C)[C@H]1CC[C@H]2[C@@H]3CC=C4C[C@@H](O)CC[C@]4(C)[C@H]3CC[C@]12C [Example 75, tert-butyl N—((R)-4-((3S,8S,9S,10R,13R,14S,17R)-3-hydroxy-10,13-dimethyl-2,3,4,7,8,9,10,11,12,13,14,15,16,17-tetradecahydro-1H-cyclopenta[a]phenanthren-17-yl)pentanoyl)-N-methoxyglycinate]	6.00 to 6.60	–
C[C@H](CCC(=O)N1CC[C@H](Oc2ccncn2)C1)[C@H]1CC[C@H]2[C@@H]3CC=C4C[C@@H](O)CC[C@]4(C)[C@H]3CC[C@]12C [Example 216, (4R)-4-[(1R,3aS,3bS,7S,9aR,9bS,11aR)-7-hydroxy-9a,11a-dimethyl-1H,2H,3H,3aH,3bH,4H,6H,7H,8H,9H,9aH,9bH,10H,11H,11aH-cyclopenta[a]phenanthren-1-yl]-1-[(3S)-3-(pyrimidin-4-yloxy)pyrrolidin-1-yl]pentan-1-one]	< 5.00	–
C[C@@H]1CCN(C(=O)CC[C@@H](C)[C@H]2CC[C@H]3[C@@H]4CC=C5C[C@@H](O)CC[C@]5(C)[C@H]4CC[C@]23C)O1 [Example 59, (R)-4-((3S,8S,9S,10R,13R,14S,17R)-3-hydroxy-10,13-dimethyl-2,3,4,7,8,9,10,11,12,13,14,15,16,17-tetradecahydro-1H-cyclopenta[a]phenanthren-17-yl)-1-((R)-5-methylisoxazolidin-2-yl)pentan-1-one]	6.00 to 6.60	–
CC(C)C(=O)N1CCN(C(=O)CC[C@@H](C)[C@H]2CC[C@H]3[C@@H]4CC=C5C[C@@H](O)CC[C@]5(C)[C@H]4CC[C@]23C)CC1 [Example 315, (R)-4-((3S,8S,9S,10R,13R,14S,17R)-3-hydroxy-10,13-dimethyl-2,3,4,7,8,9,10,11,12,13,14,15,16,17-tetradecahydro-1H-cyclopenta[a]phenanthren-17-yl)-1-(4-isobutyrylpiperazin-1-yl)pentan-1-one]	< 5.00	–
C[C@H](CCC(=O)N1CCN(c2cnn(C)c2)CC1)[C@H]1CC[C@H]2[C@@H]3CC=C4C[C@@H](O)CC[C@]4(C)[C@H]3CC[C@]12C [Example 214, (R)-4-((3S,8S,9S,10R,13R,14S,17R)-3-hydroxy-10,13-dimethyl-2,3,4,7,8,9,10,11,12,13,14,15,16,17-tetradecahydro-1H-cyclopenta[a]phenanthren-17-yl)-1-(4-(1-methyl-1H-pyrazol-4-yl)piperazin-1-yl)pentan-1-one]	< 5.00	–
C[C@H](CCC(=O)N1CC(C)(C)[C@@H]2COC[C@@H]21)[C@H]1CC[C@H]2[C@@H]3CC=C4C[C@@H](O)CC[C@]4(C)[C@H]3CC[C@]12C [Example 138, (4R)-1-(3,3-dimethylhexahydro-1H-furo[3,4-b]pyrrol-1-yl)-4-((3S,8S,9S,10R,13R,14S,17R)-3-hydroxy-10,13-dimethyl-2,3,4,7,8,9,10,11,12,13,14,15,16,17-tetradecahydro-1H-cyclopenta[a]phenanthren-17-yl)pentan-1-one]	6.00 to 6.60	–
CNS(=O)(=O)C1CCN(C(=O)CC[C@@H](C)[C@H]2CC[C@H]3[C@@H]4CC=C5C[C@@H](O)CC[C@]5(C)[C@H]4CC[C@]23C)CC1 [Example 291, 1-[(4R)-4-[(1R,3aS,3bS,7S,9aR,9bS,11aR)-7-hydroxy-9a,11a-dimethyl-1H,2H,3H,3aH,3bH,4H,6H,7H,8H,9H,9aH,9bH,10H,11H,11aH-cyclopenta[a]phenanthren-1-yl]pentanoyl]-N-methylpiperidine-4-sulfonamide]	< 5.00	–
CC(NS(C)(=O)=O)C1CCN(C(=O)CC[C@@H](C)[C@H]2CC[C@H]3[C@@H]4CC=C5C[C@@H](O)CC[C@]5(C)[C@H]4CC[C@]23C)CC1 (stereo partly drawn) [Example 229, N-(1-(1-((R)-4-((3S,8S,9S,10R,13R,14S,17R)-3-hydroxy-10,13-dimethyl-2,3,4,7,8,9,10,11,12,13,14,15,16,17-tetradecahydro-1H-cyclopenta[a]phenanthren-17-yl)pentanoyl)piperidin-4-yl)ethyl)methanesulfonamide]	< 5.00	–
C[C@H](CCC(=O)N1CCC(CN2CCOC(C)(C)C2=O)CC1)[C@H]1CC[C@H]2[C@@H]3CC=C4C[C@@H](O)CC[C@]4(C)[C@H]3CC[C@]12C [Example 522, 4-({1-[(4R)-4-[(1R,3aS,3bS,7S,9aR,9bS,11aR)-7-hydroxy-9a,11a-dimethyl-1H,2H,3H,3aH,3bH,4H,6H,7H,8H,9H,9aH,9bH,10H,11H,11aH-cyclopenta[a]phenanthren-1-yl]pentanoyl]piperidin-4-yl}methyl)-2,2-dimethylmorpholin-3-one]	–	> 6.60
